According to ChEMBL document CHEMBL4507264, “Data for DCP probe BAY-7598” (2021):

Experiments:
[1] = biological target: BMP-2-inducible protein kinase (Homo sapiens) (UniProt Q9NSY1); details: Compound concentration 1000.0 nM
[2] = biological target: Mitogen-activated protein kinase kinase kinase 3 (Homo sapiens) (UniProt Q99759); details: Compound concentration 1000.0 nM
[3] = biological target: Myosin-IIIb (Homo sapiens) (UniProt Q8WXR4); details: Compound concentration 1000.0 nM
[4] = biological target: Protein kinase C epsilon type (Homo sapiens) (UniProt Q02156); details: Compound concentration 1000.0 nM
[5] = biological target: Phosphatidylinositol 3-kinase catalytic subunit type 3 (Homo sapiens) (UniProt Q8NEB9); details: Compound concentration 1000.0 nM
[6] = biological target: Tyrosine-protein kinase Fes/Fps (Homo sapiens) (UniProt P07332); details: Compound concentration 1000.0 nM
Chain of Tyrosine-protein kinase Fes/Fps (Homo sapiens) (P07332 whole entry): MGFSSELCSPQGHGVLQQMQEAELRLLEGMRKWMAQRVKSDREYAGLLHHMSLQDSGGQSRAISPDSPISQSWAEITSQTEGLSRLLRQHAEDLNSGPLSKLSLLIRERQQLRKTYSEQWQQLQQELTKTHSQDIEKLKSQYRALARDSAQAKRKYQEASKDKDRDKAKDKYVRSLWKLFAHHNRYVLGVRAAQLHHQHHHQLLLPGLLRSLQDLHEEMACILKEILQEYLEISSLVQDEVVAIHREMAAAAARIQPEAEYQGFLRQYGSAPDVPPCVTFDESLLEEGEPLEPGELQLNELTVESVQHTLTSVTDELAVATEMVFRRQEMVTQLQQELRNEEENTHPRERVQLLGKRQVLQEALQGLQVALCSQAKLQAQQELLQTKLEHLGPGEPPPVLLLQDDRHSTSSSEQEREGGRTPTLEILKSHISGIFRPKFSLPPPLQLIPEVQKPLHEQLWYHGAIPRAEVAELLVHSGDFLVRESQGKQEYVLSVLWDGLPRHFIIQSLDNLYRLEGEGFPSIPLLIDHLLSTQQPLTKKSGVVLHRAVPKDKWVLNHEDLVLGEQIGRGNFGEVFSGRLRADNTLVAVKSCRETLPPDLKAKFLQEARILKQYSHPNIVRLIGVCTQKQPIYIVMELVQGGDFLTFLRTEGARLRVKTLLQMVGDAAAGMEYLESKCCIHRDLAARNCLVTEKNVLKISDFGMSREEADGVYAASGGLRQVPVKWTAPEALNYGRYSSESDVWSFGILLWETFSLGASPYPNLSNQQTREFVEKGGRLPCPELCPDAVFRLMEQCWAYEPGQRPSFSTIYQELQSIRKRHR

[7] = biological target: Leucine-rich repeat serine/threonine-protein kinase 2 (Homo sapiens) (UniProt Q5S007); details: Compound concentration 1000.0 nM
[8] = biological target: T1, D(4) dopamine receptor (Homo sapiens) (UniProt P21917); details: Compound concentration 10.0 uM
T1 sequence (whole entry): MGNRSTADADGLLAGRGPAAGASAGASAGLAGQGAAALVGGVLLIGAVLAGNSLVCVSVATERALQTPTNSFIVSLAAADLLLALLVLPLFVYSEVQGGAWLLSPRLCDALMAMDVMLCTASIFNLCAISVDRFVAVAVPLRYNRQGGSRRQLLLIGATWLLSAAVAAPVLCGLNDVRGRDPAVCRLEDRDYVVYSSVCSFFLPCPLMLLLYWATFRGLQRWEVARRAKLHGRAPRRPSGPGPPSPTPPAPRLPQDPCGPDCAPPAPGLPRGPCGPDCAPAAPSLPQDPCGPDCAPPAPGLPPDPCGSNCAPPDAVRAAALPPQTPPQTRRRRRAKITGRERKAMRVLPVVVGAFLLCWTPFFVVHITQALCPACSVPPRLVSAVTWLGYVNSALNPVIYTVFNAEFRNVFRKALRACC

[9] = biological target: NUAK family SNF1-like kinase 2 (Homo sapiens) (UniProt Q9H093); details: Compound concentration 1000.0 nM
[10] = biological target: Serine/threonine-protein kinase OSR1 (Homo sapiens) (UniProt O95747); details: Compound concentration 1000.0 nM
[11] = biological target: Tyrosine-protein kinase SYK (Homo sapiens) (UniProt P43405); details: Compound concentration 1000.0 nM
[12] = biological target: Ephrin type-A receptor 1 (Homo sapiens) (UniProt P21709); details: Compound concentration 1000.0 nM
Chain of Ephrin type-A receptor 1 (Homo sapiens) (P21709 whole entry): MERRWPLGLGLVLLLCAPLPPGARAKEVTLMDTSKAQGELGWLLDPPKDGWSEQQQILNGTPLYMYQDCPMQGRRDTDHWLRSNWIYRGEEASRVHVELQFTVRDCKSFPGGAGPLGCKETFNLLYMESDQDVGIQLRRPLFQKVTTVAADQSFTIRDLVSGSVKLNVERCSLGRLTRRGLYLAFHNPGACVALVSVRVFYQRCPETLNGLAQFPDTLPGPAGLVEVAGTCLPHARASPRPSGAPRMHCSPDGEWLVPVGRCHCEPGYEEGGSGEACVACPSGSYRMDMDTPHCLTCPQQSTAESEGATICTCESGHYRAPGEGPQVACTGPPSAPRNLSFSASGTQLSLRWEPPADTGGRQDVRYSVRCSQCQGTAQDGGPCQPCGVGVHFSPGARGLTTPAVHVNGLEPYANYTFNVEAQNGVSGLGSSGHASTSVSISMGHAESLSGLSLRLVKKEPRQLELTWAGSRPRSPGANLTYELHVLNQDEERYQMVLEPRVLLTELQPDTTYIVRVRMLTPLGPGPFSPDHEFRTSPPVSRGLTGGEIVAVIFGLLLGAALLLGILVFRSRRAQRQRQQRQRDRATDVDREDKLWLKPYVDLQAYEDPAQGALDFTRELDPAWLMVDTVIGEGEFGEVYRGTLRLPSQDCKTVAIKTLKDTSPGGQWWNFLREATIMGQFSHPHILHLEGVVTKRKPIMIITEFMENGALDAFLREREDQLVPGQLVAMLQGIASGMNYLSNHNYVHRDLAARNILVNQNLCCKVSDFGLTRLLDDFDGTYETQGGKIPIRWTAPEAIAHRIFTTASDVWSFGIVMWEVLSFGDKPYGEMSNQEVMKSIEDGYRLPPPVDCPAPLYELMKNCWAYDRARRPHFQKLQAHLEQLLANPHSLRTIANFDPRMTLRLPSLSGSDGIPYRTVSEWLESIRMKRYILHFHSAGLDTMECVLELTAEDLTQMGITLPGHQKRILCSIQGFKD

[13] = biological target: Protein kinase C theta type (Homo sapiens) (UniProt Q04759); details: Compound concentration 1000.0 nM
[14] = system: Mast/stem cell growth factor receptor Kit (Homo sapiens), P10721 [L576P]; details: Compound concentration 1000.0 nM
[15] = biological target: Rhodopsin kinase GRK1 (Homo sapiens) (UniProt Q15835); details: Compound concentration 1000.0 nM
[16] = biological target: Macrophage-stimulating protein receptor (Homo sapiens) (UniProt Q04912); details: Compound concentration 1000.0 nM
[17] = biological target: Serine/threonine-protein kinase TAO2 (Homo sapiens) (UniProt Q9UL54); details: Compound concentration 1000.0 nM
[18] = biological target: Dual specificity mitogen-activated protein kinase kinase 7 (Homo sapiens) (UniProt O14733); details: Compound concentration 1000.0 nM
[19] = biological target: Mitogen-activated protein kinase kinase kinase 7 (Homo sapiens) (UniProt O43318); details: Compound concentration 1000.0 nM
[20] = biological target: Serine/threonine-protein kinase Nek3 (Homo sapiens) (UniProt P51956); details: Compound concentration 1000.0 nM
Chain of Serine/threonine-protein kinase Nek3 (Homo sapiens) (P51956 whole entry): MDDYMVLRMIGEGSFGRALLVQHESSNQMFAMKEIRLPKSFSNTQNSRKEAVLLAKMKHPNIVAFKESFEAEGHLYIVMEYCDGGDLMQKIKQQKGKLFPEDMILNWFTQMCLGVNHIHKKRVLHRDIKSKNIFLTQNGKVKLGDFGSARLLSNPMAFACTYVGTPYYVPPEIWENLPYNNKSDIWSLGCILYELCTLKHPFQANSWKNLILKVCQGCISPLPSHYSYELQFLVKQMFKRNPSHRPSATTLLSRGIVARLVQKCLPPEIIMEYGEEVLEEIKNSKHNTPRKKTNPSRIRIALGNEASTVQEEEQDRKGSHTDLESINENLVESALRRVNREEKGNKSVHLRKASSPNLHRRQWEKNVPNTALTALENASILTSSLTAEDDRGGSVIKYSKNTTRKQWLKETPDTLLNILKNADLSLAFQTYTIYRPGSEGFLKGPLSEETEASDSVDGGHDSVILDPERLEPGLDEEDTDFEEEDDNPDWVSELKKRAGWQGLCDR

[21] = biological target: Megakaryocyte-associated tyrosine-protein kinase (Homo sapiens) (UniProt P42679); details: Compound concentration 1000.0 nM
[22] = biological target: TGF-beta receptor type-1 (Homo sapiens) (UniProt P36897); details: Compound concentration 1000.0 nM
[23] = biological target: 5-hydroxytryptamine receptor 7 (Homo sapiens) (UniProt P34969); details: Compound concentration 10.0 uM
[24] = biological target: Cyclin-dependent kinase 4 (Homo sapiens) (UniProt P11802); details: Compound concentration 1000.0 nM
Chain of Cyclin-dependent kinase 4 (Homo sapiens) (P11802 whole entry): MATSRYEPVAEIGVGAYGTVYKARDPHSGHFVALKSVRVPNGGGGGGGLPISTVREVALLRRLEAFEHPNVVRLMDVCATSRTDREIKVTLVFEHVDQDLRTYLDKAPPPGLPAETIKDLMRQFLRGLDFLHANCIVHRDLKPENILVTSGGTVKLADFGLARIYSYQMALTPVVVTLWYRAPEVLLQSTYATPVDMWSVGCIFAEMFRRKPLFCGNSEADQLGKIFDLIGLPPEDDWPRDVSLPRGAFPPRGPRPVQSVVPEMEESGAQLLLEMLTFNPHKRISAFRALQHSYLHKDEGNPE

[25] = system: Mast/stem cell growth factor receptor Kit (Homo sapiens), P10721 [V559D,V654A]; details: Compound concentration 1000.0 nM
[26] = biological target: Ribosomal protein S6 kinase alpha-2 (Homo sapiens) (UniProt Q15349); details: Compound concentration 1000.0 nM
[27] = biological target: Cyclin-dependent kinase 18 (Homo sapiens) (UniProt Q07002); details: Compound concentration 1000.0 nM
[28] = biological target: Serine/threonine-protein kinase Nek4 (Homo sapiens) (UniProt P51957); details: Compound concentration 1000.0 nM
[29] = biological target: Tyrosine-protein kinase Fyn (Homo sapiens) (UniProt P06241); details: Compound concentration 1000.0 nM
[30] = biological target: Alpha-1B adrenergic receptor (Homo sapiens) (UniProt P35368); details: Compound concentration 10.0 uM
[31] = biological target: Cytoplasmic tyrosine-protein kinase BMX (Homo sapiens) (UniProt P51813); details: Compound concentration 1000.0 nM
[32] = biological target: Muscarinic acetylcholine receptor M4 (Homo sapiens) (UniProt P08173); details: Compound concentration 10.0 uM
[33] = biological target: Myosin light chain kinase, smooth muscle (Homo sapiens) (UniProt Q15746); details: Compound concentration 1000.0 nM
[34] = biological target: Beta-adrenergic receptor kinase 1 (Homo sapiens) (UniProt P25098); details: Compound concentration 1000.0 nM
Chain of Beta-adrenergic receptor kinase 1 (Homo sapiens) (P25098 whole entry): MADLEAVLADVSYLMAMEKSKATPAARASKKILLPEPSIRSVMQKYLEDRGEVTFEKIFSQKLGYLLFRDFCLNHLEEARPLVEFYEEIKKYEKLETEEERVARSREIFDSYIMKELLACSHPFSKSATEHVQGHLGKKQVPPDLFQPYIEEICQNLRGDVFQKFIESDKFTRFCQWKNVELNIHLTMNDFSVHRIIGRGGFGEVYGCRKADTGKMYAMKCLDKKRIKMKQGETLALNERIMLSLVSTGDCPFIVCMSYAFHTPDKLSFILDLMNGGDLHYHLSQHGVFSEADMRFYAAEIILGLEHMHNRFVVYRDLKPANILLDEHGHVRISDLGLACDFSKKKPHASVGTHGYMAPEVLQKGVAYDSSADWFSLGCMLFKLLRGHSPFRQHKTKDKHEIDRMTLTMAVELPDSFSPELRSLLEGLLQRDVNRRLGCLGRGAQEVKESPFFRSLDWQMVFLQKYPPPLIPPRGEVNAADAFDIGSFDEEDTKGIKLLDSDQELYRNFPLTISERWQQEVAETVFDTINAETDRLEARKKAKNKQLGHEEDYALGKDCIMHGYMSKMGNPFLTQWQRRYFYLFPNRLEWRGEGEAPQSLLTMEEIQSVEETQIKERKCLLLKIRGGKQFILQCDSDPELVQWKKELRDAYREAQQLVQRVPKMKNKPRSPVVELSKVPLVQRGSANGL

[35] = biological target: Delta-type opioid receptor (Homo sapiens) (UniProt P41143); details: Compound concentration 10.0 uM
[36] = biological target: Tyrosine-protein kinase JAK2 (Homo sapiens) (UniProt O60674); details: Compound concentration 1000.0 nM
[37] = biological target: Ribosomal protein S6 kinase alpha-1 (Homo sapiens) (UniProt Q15418); details: Compound concentration 1000.0 nM
Chain of Ribosomal protein S6 kinase alpha-1 (Homo sapiens) (Q15418 whole entry): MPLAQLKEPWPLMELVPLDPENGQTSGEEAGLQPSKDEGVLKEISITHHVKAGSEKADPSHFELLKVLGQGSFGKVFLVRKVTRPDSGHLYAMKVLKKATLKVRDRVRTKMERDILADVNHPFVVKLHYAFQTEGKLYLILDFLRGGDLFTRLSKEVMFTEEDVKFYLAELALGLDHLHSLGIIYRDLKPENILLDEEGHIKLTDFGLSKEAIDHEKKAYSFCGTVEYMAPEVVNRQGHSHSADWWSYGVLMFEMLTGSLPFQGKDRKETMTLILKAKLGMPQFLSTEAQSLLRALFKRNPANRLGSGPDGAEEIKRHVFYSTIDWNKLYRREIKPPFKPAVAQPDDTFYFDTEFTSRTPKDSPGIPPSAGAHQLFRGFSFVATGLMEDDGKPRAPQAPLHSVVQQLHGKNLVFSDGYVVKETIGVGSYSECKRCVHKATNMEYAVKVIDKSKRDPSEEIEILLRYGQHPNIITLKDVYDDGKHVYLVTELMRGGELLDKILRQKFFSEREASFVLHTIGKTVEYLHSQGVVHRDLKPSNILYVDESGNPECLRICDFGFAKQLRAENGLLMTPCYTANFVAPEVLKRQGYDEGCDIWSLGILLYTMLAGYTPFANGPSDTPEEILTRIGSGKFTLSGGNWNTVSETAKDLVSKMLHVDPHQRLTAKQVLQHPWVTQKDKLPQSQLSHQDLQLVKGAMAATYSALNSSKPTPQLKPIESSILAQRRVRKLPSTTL

[38] = system: Tyrosine-protein kinase ABL1 (Homo sapiens), P00519 [M351T]; details: Compound concentration 1000.0 nM
[39] = biological target: Serine/threonine-protein kinase WNK2 (Homo sapiens) (UniProt Q9Y3S1); details: Compound concentration 1000.0 nM
[40] = biological target: Tyrosine-protein kinase receptor TYRO3 (Homo sapiens) (UniProt Q06418); details: Compound concentration 1000.0 nM
Chain of Tyrosine-protein kinase receptor TYRO3 (Homo sapiens) (Q06418 whole entry): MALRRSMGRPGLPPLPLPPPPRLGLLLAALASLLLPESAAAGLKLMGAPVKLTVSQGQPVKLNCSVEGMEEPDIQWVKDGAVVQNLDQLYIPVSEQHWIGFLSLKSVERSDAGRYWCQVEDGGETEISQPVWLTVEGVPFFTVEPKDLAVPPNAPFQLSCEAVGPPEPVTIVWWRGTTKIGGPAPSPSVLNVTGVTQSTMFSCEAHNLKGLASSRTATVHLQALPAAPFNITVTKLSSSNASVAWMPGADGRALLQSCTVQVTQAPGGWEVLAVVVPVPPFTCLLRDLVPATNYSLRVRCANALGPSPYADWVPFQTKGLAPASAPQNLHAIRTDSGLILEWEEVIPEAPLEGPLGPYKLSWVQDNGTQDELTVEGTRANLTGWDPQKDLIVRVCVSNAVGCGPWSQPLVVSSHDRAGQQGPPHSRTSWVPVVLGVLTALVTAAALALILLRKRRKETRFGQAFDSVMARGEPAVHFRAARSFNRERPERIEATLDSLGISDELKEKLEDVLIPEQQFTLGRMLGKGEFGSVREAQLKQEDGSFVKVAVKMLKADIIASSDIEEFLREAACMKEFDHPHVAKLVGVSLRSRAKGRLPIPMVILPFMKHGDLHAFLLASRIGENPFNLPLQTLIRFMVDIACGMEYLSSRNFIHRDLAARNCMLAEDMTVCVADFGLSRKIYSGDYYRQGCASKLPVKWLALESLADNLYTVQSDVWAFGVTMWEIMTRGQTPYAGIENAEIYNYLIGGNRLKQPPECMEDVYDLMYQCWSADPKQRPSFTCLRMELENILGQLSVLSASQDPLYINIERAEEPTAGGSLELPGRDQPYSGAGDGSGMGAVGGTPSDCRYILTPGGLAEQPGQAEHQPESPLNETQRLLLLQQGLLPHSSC

O=C(O)[C@@H]1[C@@H](Cn2nnc3ccccc3c2=O)CC[C@H]1C(=O)c1ccc(OCCC2CCOCC2)cc1 [BAY-694]
inactive: residual activity [1] 100% | residual activity [2] 100% | residual activity [3] 90% | residual activity [4] 100% | residual activity [5] 96% | residual activity [6] 100% | residual activity [7] 100% | inhibition [8] 21.9% | residual activity [9] 100% | residual activity [10] 100% | residual activity [11] 100% | residual activity [12] 100% | residual activity [13] 85% | residual activity [14] 100% | residual activity [15] 100% | residual activity [16] 91% | residual activity [17] 76% | residual activity [18] 89% | residual activity [19] 86% | residual activity [20] 83% | residual activity [21] 95% | residual activity [22] 100% | inhibition [23] -2.99% | residual activity [24] 83% | residual activity [25] 94% | residual activity [26] 96% | residual activity [27] 90% | residual activity [28] 56% | residual activity [29] 76% | inhibition [30] 6.29% | residual activity [31] 100% | inhibition [32] -7.11% | residual activity [33] 100% | residual activity [34] 78% | inhibition [35] 15.9% | residual activity [36] 74% | residual activity [37] 100% | residual activity [38] 95% | residual activity [39] 82% | residual activity [40] 100%

O=C(O)[C@H]1[C@H](Cn2nnc3ccccc3c2=O)CC[C@@H]1C(=O)c1ccc(OCCC2CCOCC2)cc1 [BAY-7598]
inactive: residual activity [1] 86% | residual activity [2] 100% | residual activity [3] 69% | residual activity [4] 100% | residual activity [5] 93% | residual activity [6] 100% | residual activity [7] 90% | inhibition [8] 12.5% | residual activity [9] 100% | residual activity [10] 77% | residual activity [11] 76% | residual activity [12] 100% | residual activity [13] 80% | residual activity [14] 96% | residual activity [15] 97% | residual activity [16] 96% | residual activity [17] 100% | residual activity [18] 96% | residual activity [19] 100% | residual activity [20] 86% | residual activity [21] 83% | residual activity [22] 90% | inhibition [23] -3.55% | residual activity [24] 89% | residual activity [25] 100% | residual activity [26] 90% | residual activity [27] 84% | residual activity [28] 84% | residual activity [29] 100% | inhibition [30] 7.47% | residual activity [31] 92% | inhibition [32] -5.24% | residual activity [33] 74% | residual activity [34] 61% | inhibition [35] 1.43% | residual activity [36] 75% | residual activity [37] 90% | residual activity [38] 82% | residual activity [39] 99% | residual activity [40] 100%
